Experimental data: patent US20220143016A1, “METHOD FOR TREATING A MULTIPLE MYELOMA” (PTC THERAPEUTICS, INC., priority 2019, published 2022)
“Also recorded” adds a separate entry of the source.

Legend:
[1] = system: parental and PI-resistant HMCLs; assay: Cytotoxicity in human MM cell lines (HMCLs); format: cell-based; settings: parental and PI-resistant HMCLs (n=16), read-out: median IC50
Method: (§1) The effect of Compound 1 was tested in human MM cell lines (HMCLs) using cytotoxicity, colony formation, co-culture, qPCR, Western Blot, flow cytometry, ELISA, and lentiviral transduction experiments. The effect of Compound 1 was assessed in vivo in the 5TGM1 murine model of MM.

BMI-1 = BMI-1 protein expression in HMCLs; format: cell-based, human; settings: within 24 hrs of treatment
Method: as §1

MM cells [2] = assay: Time course experiments: mitotic arrest and apoptosis in MM cells; format: cell-based, human
Method: as §1

[3] = system: MYC, AKT, ERK, GSK3b, FOXM1; assay: Central MM signalling cascades and key MM gene protein expression; format: cell-based, human
Method: as §1

MM cells [4] = assay: Drug combination studies in MM cell lines; format: cell-based, human
Method: as §1

5TGM1 murine model of MM = assay: 5TGM1 murine model of MM, bone marrow infiltration; format: in vivo; settings: 5TGM1 model
Method: as §1

[5] = system: microtubule polymerization; assay: Mechanistic studies of microtubule polymerization

## Cc1nc2ccc(F)cc2n1-c1nc(N)c(F)c(Nc2ccc(C(F)(F)F)cc2)n1 [Compound 1, 5-fluoro-2-(6-fluoro-2-methyl-1H-benzo[d]imidazol-1-yl)-N^4-[4-(trifluoromethyl)phenyl]pyrimidine-4,6-diamine]
[1]
  IC50: 57.2 nM
BMI-1
  BMI-1 protein expression: downregulated BMI-1 protein expression
MM cells [2]; 6-24 h post treatment, elevated Cyclin B1, AURKA and BIRC5, downregulation of MCL1
  mitotic arrest: potent mitotic arrest
MM cells [2]; BMI-1 overexpression
  rescue of MM cells with BMI-1 overexpression: did not rescue
MM cells [2]; after prolonged mitosis, Annexin V positive cells, cleaved caspases 8 and 9, cleaved PARP, loss of MCL1, mitochondrial membrane depolarization
  apoptosis: induction of apoptosis
[3]
  ERK and GSK3b activity: unaffected
  MYC and AKT activity: significant reduction
  MYC and FOXM1 protein expression: Downregulation
MM cells [4]; IMiDs, Dex, PIs, MEL, BH3 mimetics targeting BCL2, BCLxL, MCL1, in individual cell lines
  combination effect with established drugs and BH3 mimetics: synergism
MM cells [4]; targeting EZH2, CBP/EP300, BRD4, HDACs
  combination effect with epigenetic modulators: Consistent synergism
5TGM1 murine model of MM; 30 mg/kg/biweekly
  MM cells after treatment: complete eradication of MM cells
5TGM1 murine model of MM; various doses versus vehicle (FIG. 1, *P<0.0001)
  BM infiltration: dose response reduction; also recorded: reproducible dose dependent reduction
[5]
  microtubule polymerization: inhibits microtubule polymerization
